From article PMC11871066, “Structure-based discovery of hydrocarbon-stapled paxillin peptides that block FAK scaffolding in cancer” (Nature Communications, 2025)
Like-named read-outs stand apart in the source and are kept apart here. Values belong to the compound of their own block, whether it stands above or below them. Bridge positions count the residues as written; N and C are the ends. Square brackets hold non-standard residues; d marks the D form. Peptide text beside a SMILES is read from it. R8 = C=CCCCCCC[C@@](C)(N)C(=O)O; S5 = C=CCCC[C@](C)(N)C(=O)O

Key:
[1] = molecular target: T1, FAK FAT domain (Homo sapiens, UniProt Q05397); assay: SPR binding to immobilized biotinylated FAK FAT
T1 sequence (Q05397 914-1045 limits assumed): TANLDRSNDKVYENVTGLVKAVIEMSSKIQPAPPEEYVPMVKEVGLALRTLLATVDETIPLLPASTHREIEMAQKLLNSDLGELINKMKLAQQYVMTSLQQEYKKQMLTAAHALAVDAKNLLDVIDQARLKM
Method: SPR binding studies were performed using biotinylated FAK FAT protein[51]. Briefly, SPR binding assays were performed on a ForteBio Pioneer FE SPR system using SPR running buffer (100 mM Tris-Cl pH 8.0, 200 mM NaCl, and 0.05% Tween-20). […] Desired immobilization levels were determined utilizing the following Eq. 1:1 Rmax=RproteinxMranalyte/MrproteinxVprotein where Rmax is the highest possible response of binding between the analyte and the protein, Rprotein is the change in response by the immobilization of the protein, Mr represents the mass of the analyte or protein, and Vprotein represents the number of binding sites on the protein. A target Rmax of approximately 100 RU was chosen.
All samples were diluted in the SPR buffer to a volume of 200 µl and injected using the OneStep gradient injection system at a flow rate of 150 µl/min. For a bulk standard control, a 3% (w\v) solution of sucrose in SPR buffer was used for injection. […] SPR data analysis utilized Qdat software (ForteBio, version 4.3.2 build 8) for normalization of the baseline prior to injection, channel alignment, and reference channel and blank subtraction.

[2] = Circular dichroism, % alpha-helicity; format: physicochemical; conditions: CD, 20 mM NaH2PO4 pH 7.0, 20 °C, CDSSTR
Method: CD experiments were performed on a Jasco J-815 CD spectrometer equipped with a Jasco PTC-423S/15 temperature control and analysis utilizing Spectra Manager (version 2.0). Spectral measurements were made in quartz spectrophotometer cells with an optical cell path length of 1.0 mm (Starna Cells Inc.) using standard collection parameters: 20 °C, 190–260 nm, 0.5 nm step resolution, 50 nm/min scanning speed, 0.5 s response, 1 nm bandwidth, 8 accumulations. […] Secondary structure analysis, including % alpha-helicity, was performed using the CDSSTR method[58] on data reference set 4 basis spectra. The reliability of secondary structure predictions was quantified by the goodness-of-fit of the back-calculated spectrum to the experimental spectrum and reported as a normalized root-mean-square deviation (NRMSD).

[3] = test system: trypsin; assay: Trypsin proteolytic resistance assay; conditions: immobilized trypsin-agarose resin
Method: (§1) Cell permeability of peptide drugs was determined by fluorescence measurement of TAMRA-labeled peptides in 96-well plates and ClarioStar Plus plate reader using BMG ClarioStar MARS software (version 4.20). […] Percent uptake was calculated as background-subtracted fluorescence absorbed by cells/fluorescence of peptide in media-only wells, then made relative to TAMRA-Alkyne. Three biological replicates (n = 3) were performed per cell line per treatment group. Peptide proteolysis was measured using immobilized Trypsin-agarose resin (Thermo Fisher) and quantification by LC-MS. […] In vivo pharmacokinetics were performed by the UACC Analytical Chemistry Shared Resource. […] The mice were fed NIH-31 irradiated pellets (Tekland Premier, Madison, Wisconsin), and reverse osmosis water was freely available. […] The average plasma concentration versus time data were analyzed using PKSolver (version 2.0) by a noncompartmental approach.

[4] = molecular target: trypsin (Bos taurus, UniProt P00760)
Chain of trypsin (Bos taurus, UniProt P00760) (P00760 24-246): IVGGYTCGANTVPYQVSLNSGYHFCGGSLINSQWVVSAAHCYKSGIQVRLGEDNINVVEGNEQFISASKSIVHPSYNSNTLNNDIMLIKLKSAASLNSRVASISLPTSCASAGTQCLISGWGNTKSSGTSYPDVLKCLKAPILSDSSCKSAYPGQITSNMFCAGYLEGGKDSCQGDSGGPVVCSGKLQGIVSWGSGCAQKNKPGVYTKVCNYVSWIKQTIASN
Method: as §1

[5] = test system: trypsin; assay: in vitro; conditions: isolated enzyme trypsin
Method: as §1

[6] = molecular target: T2, FAK FAT / TAMRA-paxillin LD2 L10D (Homo sapiens, UniProt Q05397); assay: Fluorescence polarization competition (FAK-paxillin) assay; format: binding; conditions: read-out: FP (Ki) data
T2 construct: assay was performed using FAK FAT protein and TAMRA-LD2 L10D peptide
T2 sequence (Q05397 919-1052): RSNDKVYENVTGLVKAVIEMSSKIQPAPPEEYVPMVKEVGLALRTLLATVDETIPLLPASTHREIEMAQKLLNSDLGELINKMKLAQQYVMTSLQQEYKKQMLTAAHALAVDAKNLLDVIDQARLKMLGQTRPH
Method: The IC50 was calculated using a four-parameter dose-response inhibition model, with the bottom fit constrained to the lower plateau of the binding curve.

- Kd ([1]; Rep2, read-out: SPR (KD)): 35.6 µM
- helical content [2]: 70%
SMILES: C=CCCCCCC[C@@](C)(NC(=O)[C@H](CC(C)C)NC(=O)[C@H](CC(N)=O)NC(C)=O)C(=O)N[C@@H](CCC(=O)O)C(=O)N[C@@H](CC(C)C)C(=O)N[C@@H](CC(=O)O)C(=O)N[C@@H](CCCNC(=N)N)C(=O)N[C@@H](CC(C)C)C(=O)N[C@@H](CC(C)C)C(=O)N[C@@](C)(CCCC=C)C(=O)N[C@@H](CCC(=O)O)C(=O)N[C@@H](CC(C)C)C(=O)N[C@@H](CC(N)=O)C(N)=O [compound 2013]

SMILES: CC(=O)N[C@@H](CC(N)=O)C(=O)N[C@@H](CC(C)C)C(=O)N[C@@H](CO)C(=O)N[C@@H](CCC(=O)O)C(=O)N[C@@H](CC(C)C)C(=O)N[C@@H](CC(=O)O)C(=O)N[C@@H](CCCNC(=N)N)C(=O)N[C@@H](CC(C)C)C(=O)N[C@@H](CC(C)C)C(=O)N[C@@H](CC(C)C)C(=O)N[C@@H](CCC(=O)O)C(=O)N[C@@H](CC(C)C)C(=O)N[C@@H](CC(N)=O)C(N)=O [LD2, reference compound]
- remaining at 0.25 h, 100 µM [3]: 76%
- remaining at 0.5 h, 100 µM [3]: 70%
- remaining at 1 h, 100 µM [3]: 29%
- remaining at 2 h, 100 µM [3]: 16%
- remaining at 3 h, 100 µM [3]: 16%
- remaining at 4 h, 100 µM [3]: 13%
- remaining at 6 h, 100 µM [3]: 0%
- remaining at 7 h, 100 µM [3]: 0%
- remaining at 24 h, 100 µM [3]: 0%
- remaining at 48 h, 100 µM [3]: 0%
- trypsin proteolysis t1/2 [4]: 46.8 min
- half-life at 100 µM [5]: 47 min

- Kd ([1]; one-site kinetic fit, mean ± SD of n = 2-5 biological replicates, Tris pH 8.0, read-out: SPR KD): 146 µM
SMILES: CC(=O)N[C@@H](CC(N)=O)C(=O)N[C@@H](CC(C)C)C(=O)N[C@@H](CO)C(=O)N[C@]1(C)CCCCCCC=CCCC[C@@](C)(C(=O)N[C@@H](CC(C)C)C(=O)N[C@@H](CC(N)=O)C(N)=O)NC(=O)[C@H](CC(C)C)NC(=O)[C@H](CC(C)C)NC(=O)[C@H](CC(C)C)NC(=O)[C@H](CCCNC(=N)N)NC(=O)[C@H](CC(=O)O)NC(=O)[C@H](CC(C)C)NC1=O [compound 1905] (Ac-NLS[R8]LDRLLL[S5]LN-NH2; staple 4-11)
- Ki ([6]; Rep1): > 1250 µM
- Ki ([6]; Rep2): > 1250 µM
- Ki ([6]; Rep3): > 1250 µM
